Results on four compounds are retold here after publication PMC8550792, “Evolution of kinase polypharmacology across HSP90 drug discovery” (Cell Chemical Biology, 2021).

Molecules are shown by their SMILES.

What all share (assay): biochemical
What all share (format): biochemical

The target in assay [1] is T1, 382 unique human kinases (Homo sapiens, UniProt P22607, K650Q).
T1 construct: purchased Reaction Biology (HotSpot contract assay)
Particulars: kinase FGFR3 (K650Q), compound 10 uM; for remaining activity at 10 µM: read-out: % Enzyme Activity (relative to DMSO controls).

The target in assay [2] is T2, 382 unique human kinases (Homo sapiens, UniProt O95835).
T2 construct: purchased Reaction Biology (HotSpot contract assay)
T2 sequence (O95835 1-1130): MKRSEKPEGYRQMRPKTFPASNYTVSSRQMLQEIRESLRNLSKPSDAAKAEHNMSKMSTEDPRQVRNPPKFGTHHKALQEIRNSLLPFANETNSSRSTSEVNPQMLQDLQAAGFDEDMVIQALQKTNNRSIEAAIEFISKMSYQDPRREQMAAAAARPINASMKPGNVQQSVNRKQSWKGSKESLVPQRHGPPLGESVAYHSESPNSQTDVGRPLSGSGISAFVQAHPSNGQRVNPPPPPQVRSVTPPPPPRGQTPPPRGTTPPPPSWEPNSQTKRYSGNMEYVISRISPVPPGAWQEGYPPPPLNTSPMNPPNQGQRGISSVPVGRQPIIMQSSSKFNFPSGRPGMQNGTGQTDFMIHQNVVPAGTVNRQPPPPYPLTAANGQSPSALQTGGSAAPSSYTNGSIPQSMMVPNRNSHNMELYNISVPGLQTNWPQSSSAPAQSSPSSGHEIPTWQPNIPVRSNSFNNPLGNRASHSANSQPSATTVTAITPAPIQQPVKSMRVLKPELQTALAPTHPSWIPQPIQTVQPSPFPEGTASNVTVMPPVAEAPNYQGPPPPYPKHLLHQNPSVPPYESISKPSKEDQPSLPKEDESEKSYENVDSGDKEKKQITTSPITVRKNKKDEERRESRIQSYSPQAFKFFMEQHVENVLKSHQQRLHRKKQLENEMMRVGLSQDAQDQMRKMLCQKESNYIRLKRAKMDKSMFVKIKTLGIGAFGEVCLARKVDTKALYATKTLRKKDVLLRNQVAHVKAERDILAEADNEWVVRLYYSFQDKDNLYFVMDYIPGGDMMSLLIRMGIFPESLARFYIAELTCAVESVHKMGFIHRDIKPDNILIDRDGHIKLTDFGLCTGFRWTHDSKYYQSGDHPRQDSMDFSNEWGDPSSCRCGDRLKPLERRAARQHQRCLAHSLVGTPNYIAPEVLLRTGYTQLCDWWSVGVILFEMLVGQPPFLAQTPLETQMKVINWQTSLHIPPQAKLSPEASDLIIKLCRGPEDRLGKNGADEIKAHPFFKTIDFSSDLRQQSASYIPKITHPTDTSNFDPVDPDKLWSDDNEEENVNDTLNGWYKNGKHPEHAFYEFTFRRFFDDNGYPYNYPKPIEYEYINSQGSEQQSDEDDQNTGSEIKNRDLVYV
Particulars: LATS1, 10 uM; for remaining activity at 10 µM: read-out: % Enzyme Activity (relative to DMSO controls).

Assay [3] addresses T3, 382 unique human kinases (Homo sapiens, UniProt Q5S007).
T3 construct: purchased Reaction Biology (HotSpot contract assay)
Particulars: LRRK2, [ATP] 30 µM, compound 10 uM; for remaining activity at 10 µM: read-out: % Enzyme Activity (relative to DMSO controls).

Assay [4] addresses T4, 382 unique human kinases (Homo sapiens, UniProt P07332).
T4 construct: purchased Reaction Biology (HotSpot contract assay)
The settings on record: FES/FPS, 10 uM; for remaining activity at 10 µM: read-out: % Enzyme Activity (relative to DMSO controls).

For assay [5], the target named is T5, 382 unique human kinases (Homo sapiens, UniProt P31751, E17K).
T5 construct: purchased Reaction Biology (HotSpot contract assay)
Particulars: AKT2 (E17K), 10 uM; for remaining activity at 10 µM: read-out: % Enzyme Activity (relative to DMSO controls).

In assay [6] the target is T6, 382 unique human kinases (Homo sapiens, UniProt Q9H4B4).
T6 construct: purchased Reaction Biology (HotSpot contract assay)
Particulars: PLK3, [ATP] 100 µM, compound 10 uM; for remaining activity at 10 µM: read-out: % Enzyme Activity (relative to DMSO controls).

The target in assay [7] is T7, 382 unique human kinases (Homo sapiens, UniProt O75116).
T7 construct: purchased Reaction Biology (HotSpot contract assay)
The settings on record: ROCK2, 10 uM; for remaining activity at 10 µM: read-out: % Enzyme Activity (relative to DMSO controls).

The target of assay [8] is T8, 382 unique human kinases (Homo sapiens, UniProt P17612).
T8 construct: purchased Reaction Biology (HotSpot contract assay)
Particulars: PKA, 10 uM; for remaining activity at 10 µM: read-out: % Enzyme Activity (relative to DMSO controls).

The target in assay [9] is T9, 382 unique human kinases (Homo sapiens, UniProt P36888, D835Y).
T9 construct: purchased Reaction Biology (HotSpot contract assay)
T9 sequence (P36888 27-993 D835Y): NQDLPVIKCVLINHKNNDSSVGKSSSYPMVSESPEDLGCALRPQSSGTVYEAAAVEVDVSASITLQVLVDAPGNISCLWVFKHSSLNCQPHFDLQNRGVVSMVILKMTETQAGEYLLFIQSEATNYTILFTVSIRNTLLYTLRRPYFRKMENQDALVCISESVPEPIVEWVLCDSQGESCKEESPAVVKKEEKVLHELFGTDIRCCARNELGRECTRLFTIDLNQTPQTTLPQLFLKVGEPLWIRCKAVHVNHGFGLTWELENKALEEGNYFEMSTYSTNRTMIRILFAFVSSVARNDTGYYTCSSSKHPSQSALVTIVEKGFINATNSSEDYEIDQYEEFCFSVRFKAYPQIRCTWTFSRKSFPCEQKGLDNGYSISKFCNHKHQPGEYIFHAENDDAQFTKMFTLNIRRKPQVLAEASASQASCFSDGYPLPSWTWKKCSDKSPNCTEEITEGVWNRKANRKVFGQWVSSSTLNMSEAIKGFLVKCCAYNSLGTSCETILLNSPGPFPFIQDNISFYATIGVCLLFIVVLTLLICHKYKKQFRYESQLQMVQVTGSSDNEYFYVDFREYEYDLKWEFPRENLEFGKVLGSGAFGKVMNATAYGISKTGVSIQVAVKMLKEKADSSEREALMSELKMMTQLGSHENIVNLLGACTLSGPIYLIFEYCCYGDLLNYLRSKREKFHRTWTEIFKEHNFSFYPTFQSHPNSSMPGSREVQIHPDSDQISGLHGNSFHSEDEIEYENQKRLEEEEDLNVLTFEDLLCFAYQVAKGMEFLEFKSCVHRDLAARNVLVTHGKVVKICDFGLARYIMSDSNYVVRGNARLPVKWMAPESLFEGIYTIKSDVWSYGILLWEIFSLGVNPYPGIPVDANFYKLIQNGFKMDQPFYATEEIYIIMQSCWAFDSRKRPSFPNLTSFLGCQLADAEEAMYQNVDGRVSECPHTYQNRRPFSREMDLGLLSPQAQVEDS
The settings on record: FLT3 (D835Y), [ATP] 20 µM, compound 10 uM; for remaining activity at 10 µM: read-out: % Enzyme Activity (relative to DMSO controls).

The target in assay [10] is T10, 382 unique human kinases (Homo sapiens, UniProt Q15349).
T10 construct: purchased Reaction Biology (HotSpot contract assay)
T10 sequence (Q15349 whole entry): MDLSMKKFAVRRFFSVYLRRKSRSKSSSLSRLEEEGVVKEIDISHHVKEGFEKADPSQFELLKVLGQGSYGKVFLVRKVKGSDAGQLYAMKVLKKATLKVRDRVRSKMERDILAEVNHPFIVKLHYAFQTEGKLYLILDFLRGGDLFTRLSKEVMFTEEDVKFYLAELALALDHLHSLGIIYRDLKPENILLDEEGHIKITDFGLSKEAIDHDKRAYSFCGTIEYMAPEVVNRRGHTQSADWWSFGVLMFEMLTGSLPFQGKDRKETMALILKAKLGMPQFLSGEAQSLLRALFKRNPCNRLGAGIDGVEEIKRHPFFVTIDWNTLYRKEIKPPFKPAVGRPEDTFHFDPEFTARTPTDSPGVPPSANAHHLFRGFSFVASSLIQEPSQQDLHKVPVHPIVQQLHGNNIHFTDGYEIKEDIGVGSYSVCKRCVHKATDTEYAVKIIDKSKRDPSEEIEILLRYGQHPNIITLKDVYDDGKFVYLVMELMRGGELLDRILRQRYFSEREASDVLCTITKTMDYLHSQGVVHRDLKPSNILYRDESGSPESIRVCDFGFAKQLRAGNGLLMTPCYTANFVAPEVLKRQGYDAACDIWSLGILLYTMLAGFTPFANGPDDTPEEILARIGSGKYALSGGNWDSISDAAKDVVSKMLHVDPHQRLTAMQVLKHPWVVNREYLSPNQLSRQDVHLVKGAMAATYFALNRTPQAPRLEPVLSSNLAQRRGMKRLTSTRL
Particulars: RSK3, 10 uM; for remaining activity at 10 µM: read-out: % Enzyme Activity (relative to DMSO controls).

T3 sequence (Q5S007 whole entry): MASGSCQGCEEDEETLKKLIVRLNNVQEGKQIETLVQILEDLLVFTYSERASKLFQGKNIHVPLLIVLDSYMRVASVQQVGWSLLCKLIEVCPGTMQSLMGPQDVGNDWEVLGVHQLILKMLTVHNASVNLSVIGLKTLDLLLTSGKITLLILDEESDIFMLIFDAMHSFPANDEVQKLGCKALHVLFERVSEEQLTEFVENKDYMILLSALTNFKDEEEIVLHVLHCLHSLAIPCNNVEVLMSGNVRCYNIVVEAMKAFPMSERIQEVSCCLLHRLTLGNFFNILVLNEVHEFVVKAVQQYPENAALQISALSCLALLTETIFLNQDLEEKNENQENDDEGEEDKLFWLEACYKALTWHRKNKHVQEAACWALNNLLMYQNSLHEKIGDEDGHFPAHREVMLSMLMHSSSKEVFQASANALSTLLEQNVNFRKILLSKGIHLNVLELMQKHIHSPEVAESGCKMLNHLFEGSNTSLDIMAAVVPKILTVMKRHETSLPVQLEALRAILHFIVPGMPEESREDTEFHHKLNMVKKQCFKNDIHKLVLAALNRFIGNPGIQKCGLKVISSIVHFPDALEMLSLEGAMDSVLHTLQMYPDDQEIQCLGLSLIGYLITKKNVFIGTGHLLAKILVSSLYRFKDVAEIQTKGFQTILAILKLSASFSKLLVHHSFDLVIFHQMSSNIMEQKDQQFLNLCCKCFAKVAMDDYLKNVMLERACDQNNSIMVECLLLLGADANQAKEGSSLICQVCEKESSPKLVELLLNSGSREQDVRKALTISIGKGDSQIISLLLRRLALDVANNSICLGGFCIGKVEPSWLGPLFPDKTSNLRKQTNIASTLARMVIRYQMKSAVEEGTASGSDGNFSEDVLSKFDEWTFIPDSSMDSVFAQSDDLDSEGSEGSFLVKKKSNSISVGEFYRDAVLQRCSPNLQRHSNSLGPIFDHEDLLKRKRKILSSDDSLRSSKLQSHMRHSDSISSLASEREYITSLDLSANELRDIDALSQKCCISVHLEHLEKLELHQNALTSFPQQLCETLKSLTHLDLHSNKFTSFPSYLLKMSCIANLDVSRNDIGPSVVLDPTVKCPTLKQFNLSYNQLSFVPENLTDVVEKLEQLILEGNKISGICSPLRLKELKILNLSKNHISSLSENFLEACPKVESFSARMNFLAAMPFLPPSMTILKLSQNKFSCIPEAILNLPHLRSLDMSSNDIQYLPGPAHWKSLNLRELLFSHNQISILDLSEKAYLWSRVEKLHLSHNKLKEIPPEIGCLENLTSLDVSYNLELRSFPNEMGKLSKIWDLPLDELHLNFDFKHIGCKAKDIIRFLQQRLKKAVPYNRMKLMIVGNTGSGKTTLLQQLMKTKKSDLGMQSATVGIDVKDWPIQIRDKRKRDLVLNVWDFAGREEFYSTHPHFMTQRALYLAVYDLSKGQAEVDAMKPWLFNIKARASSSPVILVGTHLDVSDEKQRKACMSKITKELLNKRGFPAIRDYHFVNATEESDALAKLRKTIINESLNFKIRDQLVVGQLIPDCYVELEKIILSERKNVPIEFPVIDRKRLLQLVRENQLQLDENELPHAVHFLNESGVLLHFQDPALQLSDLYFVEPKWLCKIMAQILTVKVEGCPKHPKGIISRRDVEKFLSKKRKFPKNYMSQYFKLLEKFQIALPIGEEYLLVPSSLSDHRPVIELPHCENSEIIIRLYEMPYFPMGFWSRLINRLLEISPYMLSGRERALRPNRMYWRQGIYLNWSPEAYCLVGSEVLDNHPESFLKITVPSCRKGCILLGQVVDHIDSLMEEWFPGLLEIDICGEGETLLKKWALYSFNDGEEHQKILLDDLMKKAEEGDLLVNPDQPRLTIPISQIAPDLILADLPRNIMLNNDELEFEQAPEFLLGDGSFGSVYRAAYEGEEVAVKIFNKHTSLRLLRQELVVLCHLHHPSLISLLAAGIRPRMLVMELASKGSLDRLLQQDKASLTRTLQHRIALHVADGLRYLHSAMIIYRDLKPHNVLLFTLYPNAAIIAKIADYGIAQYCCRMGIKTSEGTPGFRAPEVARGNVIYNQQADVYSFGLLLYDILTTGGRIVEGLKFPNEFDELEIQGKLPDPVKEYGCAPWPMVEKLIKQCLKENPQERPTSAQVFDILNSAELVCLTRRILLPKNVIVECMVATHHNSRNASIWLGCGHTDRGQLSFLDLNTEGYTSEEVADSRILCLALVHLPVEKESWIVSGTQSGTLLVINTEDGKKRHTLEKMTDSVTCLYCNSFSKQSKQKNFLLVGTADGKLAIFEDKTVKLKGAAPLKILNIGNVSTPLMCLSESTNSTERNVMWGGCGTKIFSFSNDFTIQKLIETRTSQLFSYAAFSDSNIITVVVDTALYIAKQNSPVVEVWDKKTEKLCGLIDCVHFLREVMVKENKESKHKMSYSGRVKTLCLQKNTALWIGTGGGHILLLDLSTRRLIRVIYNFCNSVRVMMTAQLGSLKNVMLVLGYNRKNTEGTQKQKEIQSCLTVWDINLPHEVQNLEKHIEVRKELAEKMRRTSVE
T4 sequence (P07332 whole entry): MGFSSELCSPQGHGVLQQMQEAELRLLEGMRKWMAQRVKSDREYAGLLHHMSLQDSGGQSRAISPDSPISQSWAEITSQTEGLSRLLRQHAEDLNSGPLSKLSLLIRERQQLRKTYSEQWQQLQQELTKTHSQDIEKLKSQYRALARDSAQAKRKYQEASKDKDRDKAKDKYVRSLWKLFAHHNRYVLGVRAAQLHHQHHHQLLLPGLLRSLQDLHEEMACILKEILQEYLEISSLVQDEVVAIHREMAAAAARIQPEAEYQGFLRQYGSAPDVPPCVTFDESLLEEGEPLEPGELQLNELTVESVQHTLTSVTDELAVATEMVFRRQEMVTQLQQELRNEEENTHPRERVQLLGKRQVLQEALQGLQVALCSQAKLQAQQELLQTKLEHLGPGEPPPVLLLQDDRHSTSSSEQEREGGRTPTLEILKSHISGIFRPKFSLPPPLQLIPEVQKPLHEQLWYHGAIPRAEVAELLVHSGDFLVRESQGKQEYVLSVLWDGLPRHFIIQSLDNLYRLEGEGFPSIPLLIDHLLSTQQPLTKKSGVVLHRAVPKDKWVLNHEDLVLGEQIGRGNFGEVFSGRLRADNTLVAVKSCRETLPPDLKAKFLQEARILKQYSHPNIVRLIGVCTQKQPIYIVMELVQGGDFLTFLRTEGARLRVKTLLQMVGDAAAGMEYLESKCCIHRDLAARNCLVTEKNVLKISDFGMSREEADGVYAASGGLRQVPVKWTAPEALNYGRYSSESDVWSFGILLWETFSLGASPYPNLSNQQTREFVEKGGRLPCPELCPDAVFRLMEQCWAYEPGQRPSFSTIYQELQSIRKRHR
T1 sequence (P22607 23-806 K650Q): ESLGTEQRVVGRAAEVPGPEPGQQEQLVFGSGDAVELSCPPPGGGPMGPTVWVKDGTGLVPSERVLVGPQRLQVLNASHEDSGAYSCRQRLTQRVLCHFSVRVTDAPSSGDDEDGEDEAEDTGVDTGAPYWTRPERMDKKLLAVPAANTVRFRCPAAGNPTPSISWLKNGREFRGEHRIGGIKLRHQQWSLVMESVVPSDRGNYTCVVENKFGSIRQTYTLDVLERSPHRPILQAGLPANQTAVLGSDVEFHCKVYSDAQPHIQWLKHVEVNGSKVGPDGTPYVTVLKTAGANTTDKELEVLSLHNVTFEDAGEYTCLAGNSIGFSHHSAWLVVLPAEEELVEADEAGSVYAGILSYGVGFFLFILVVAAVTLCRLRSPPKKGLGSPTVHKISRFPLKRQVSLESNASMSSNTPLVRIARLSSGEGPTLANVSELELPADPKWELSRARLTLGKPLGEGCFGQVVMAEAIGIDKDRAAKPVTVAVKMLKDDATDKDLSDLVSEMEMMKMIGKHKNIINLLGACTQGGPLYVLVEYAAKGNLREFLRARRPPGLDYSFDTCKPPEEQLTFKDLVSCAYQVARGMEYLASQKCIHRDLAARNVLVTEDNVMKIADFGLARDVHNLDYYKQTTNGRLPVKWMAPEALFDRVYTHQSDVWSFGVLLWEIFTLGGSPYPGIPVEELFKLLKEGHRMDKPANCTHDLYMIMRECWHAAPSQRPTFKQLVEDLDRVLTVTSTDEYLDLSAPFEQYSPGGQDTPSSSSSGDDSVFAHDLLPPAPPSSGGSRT

Regarding `CC(C)c1cc(-c2n[nH]c(=O)n2-c2ccc3c(ccn3C)c2)c(O)cc1O` [Ganetespib (STA9090)], the remaining activity at 10 µM at 382 unique human kinases [1] came to 84.5%.
For the compound `CC(C)c1cc(-c2n[nH]c(=O)n2-c2ccc3c(ccn3C)c2)c(O)cc1O` [Ganetespib], the remaining activity at 10 µM at 382 unique human kinases [2] turned out to be 95.5%; on 382 unique human kinases [3], 45.9%; on 382 unique human kinases [4] it was 98.6%; at 382 unique human kinases [5], 108%; at 382 unique human kinases [6], 39.6%; on 382 unique human kinases [7] it was 105%. In addition, the remaining activity at 10 µM at 382 unique human kinases [8] worked out at 91%; on 382 unique human kinases [9], 18.6%; at 382 unique human kinases [10], 119%.
For `CCNC(=O)c1noc(-c2cc(C(C)C)c(O)cc2O)c1-c1ccc(CN2CCOCC2)cc1` [Luminespib (AUY-922)], at 382 unique human kinases [1], the “% Enzyme Activity (relative to DMSO controls)” value amounted to 105.48% and the remaining activity at 10 µM was 107%.
With `CCNC(=O)c1noc(-c2cc(C(C)C)c(O)cc2O)c1-c1ccc(CN2CCOCC2)cc1` [Luminespib], the “% Enzyme Activity (relative to DMSO controls)” value at 382 unique human kinases [2] came to 98.44%; at 382 unique human kinases [3], 94.05%; on 382 unique human kinases [4] it was 99.33%; on 382 unique human kinases [5], 96.63%; on 382 unique human kinases [6] it was 99.40%; at 382 unique human kinases [7], 98.18%. Further, the “% Enzyme Activity (relative to DMSO controls)” value at 382 unique human kinases [8] was determined as 108.65%; on 382 unique human kinases [9] it was 78.51%; on 382 unique human kinases [10] it was 94.51%. For the same compound, the remaining activity at 10 µM at 382 unique human kinases [2] worked out at 98.6%; on 382 unique human kinases [3], 94.8%; at 382 unique human kinases [4] it was 99.4%; on 382 unique human kinases [5], 98%; on 382 unique human kinases [6] it was 99.4%; on 382 unique human kinases [7], 99.3%. Also, the remaining activity at 10 µM was found to be 111% on 382 unique human kinases [8], 78.6% on 382 unique human kinases [9] and 95.2% on 382 unique human kinases [10].
